Key:
Experiment in all cases: Test of herbicidal activities (greenhouse pot method)
Format in all cases: in vivo
Conditions in all cases: single dose 300 g ai./h, treated before/after germination, 15 days later, greenhouse pot
Chenopodium album = test system: Chenopodium album
Description: (§1) Garden soil was collected from regions where no pesticide is used and mixed uniformly with mountain soil and organic humus soil at a volume ratio of 1:1:1.
(§2) Multiple flowerpots each having a diameter of 9.5 cm and a depth of 8 cm were filled with the soil mixture to 3/4 volume. After water was added to the soil and the soil was completely wet, seeds of three grass weeds and three broadleaf weeds were inserted into the flowerpots (10-15 seeds for each weed). After seeding, the seeds were covered with fine oil mixed with sand and having a thickness of 1-3 cm. After the soil absorbed enough water and became saturated, excess water at the bottom of the flowerpot was drained, and the seeds were placed in a greenhouse for growth.
(§3) The weeds were watered every day so as to keep relative humidity of the soil at approximately 80%, growing temperature of 15-30° C., and air humidity above 50%. As the grass weeds grew to a 2-leaf stage and the broadleaf weeds was in a leaf period, spraying operation […] was performed on the stems and leafs. Planting before germination was performed before spraying. Soil processing was performed before the seeds of the weeds emerged.
(§4) Six target weeds comprising three grass weeds: Echinochloa crusgalli, Digiatria sanguinalis, Setaria viridis, along with three broadleaf weeds: Brassica juncea, Amaranthus retroflexus, Chenopodium album were treated before/after germination using a so-called “greenhouse pot” method with a single dose. A treating dose was 300 g ai./h. The process was repeated three times, and a blank control was used.
(§5) A 3WPSHZ-500 type automatic spraying tower with a spraying area of 0.132 m^2, a spray volume of 10 mL, working pressure of 0.2 MPa, and a liquid volume of 40% of maximum was used. After treatment, the weeds were placed in a greenhouse at a temperature of 15-30° C. Reaction symptoms of the weeds were regularly observed, and 15 days later, five reaction levels were determined according to the following inhibition intervals: 90≦A≦100%; 80≦B<90%, 60≦C<80%; 50≦D<60%, E<50%.

Echinochloa crusgalli = test system: Echinochloa crusgalli
Description: as §1, §2, §3, §4, §5

Digiatria sanguinalis = test system: Digiatria sanguinalis
Description: as §1, §2, §3, §4, §5

Amaranthus retroflexus = test system: Amaranthus retroflexus
Description: as §1, §2, §3, §4, §5

Setaria viridis = test system: Setaria viridis
Description: as §1, §2, §3, §4, §5

Brassica juncea = test system: Brassica juncea
Description: as §1, §2, §3, §4, §5

Compound | Herbicidal activity Chenopodium album (inhibition level) (Chenopodium album) | Herbicidal activity Echinochloa crusgalli (inhibition level) (Echinochloa crusgalli) | Herbicidal activity Digiatria sanguinalis (inhibition level) (Digiatria sanguinalis) | Herbicidal activity Amaranthus retroflexus (inhibition level) (Amaranthus retroflexus) | Herbicidal activity Setaria viridis (inhibition level) (Setaria viridis) | Herbicidal activity Brassica juncea (inhibition level) (Brassica juncea)
Cc1nn(-c2cc3nc(SCc4cccc(Br)c4)sc3cc2F)c(=O)n1C(F)F [Compound 21] | B (80 ≦ B < 90%) | C (60 ≦ C < 80%) | B (80 ≦ B < 90%) | A (90 ≦ A ≦ 100%) | E (E < 50%) | B (80 ≦ B < 90%)
CCCCCCSc1nc2cc(-n3nc(C)n(C(F)F)c3=O)c(F)cc2s1 [Compound 83] | A (90 ≦ A ≦ 100%) | B (80 ≦ B < 90%) | D (50 ≦ D < 60%) | A (90 ≦ A ≦ 100%) | A (90 ≦ A ≦ 100%) | C (60 ≦ C < 80%)
C=CCS(=O)(=O)c1nc2cc(-n3nc(C)n(C(F)F)c3=O)c(Cl)cc2s1 [Compound 71] | B (80 ≦ B < 90%) | C (60 ≦ C < 80%) | C (60 ≦ C < 80%) | C (60 ≦ C < 80%) | B (80 ≦ B < 90%) | B (80 ≦ B < 90%)
Cc1nn(-c2cc3nc(S(=O)(=O)Cc4cccc(F)c4)sc3cc2Cl)c(=O)n1C(F)F [Compound 44] | C (60 ≦ C < 80%) | C (60 ≦ C < 80%) | C (60 ≦ C < 80%) | B (80 ≦ B < 90%) | B (80 ≦ B < 90%) | C (60 ≦ C < 80%)
Cc1nn(-c2cc3nc([S+](C)[O-])sc3cc2F)c(=O)n1C(F)F (stereo not drawn) [Compound 119] | B (80 ≦ B < 90%) | E (E < 50%) | C (60 ≦ C < 80%) | B (80 ≦ B < 90%) | C (60 ≦ C < 80%) | E (E < 50%)
Cc1nn(-c2cc3nc(SCc4ccc(Cl)nc4)sc3cc2Cl)c(=O)n1C(F)F [Compound 1] | C (60 ≦ C < 80%) | B (80 ≦ B < 90%) | B (80 ≦ B < 90%) | A (90 ≦ A ≦ 100%) | D (50 ≦ D < 60%) | B (80 ≦ B < 90%)
CCC[S+]([O-])c1nc2cc(-n3nc(C)n(C(F)F)c3=O)c(Br)cc2s1 (stereo not drawn) [Compound 110] | B (80 ≦ B < 90%) | A (90 ≦ A ≦ 100%) | B (80 ≦ B < 90%) | B (80 ≦ B < 90%) | C (60 ≦ C < 80%) | B (80 ≦ B < 90%)
CCCCCCSc1nc2cc(-n3nc(C)n(C(F)F)c3=O)c(Cl)cc2s1 [Compound 85] | B (80 ≦ B < 90%) | B (80 ≦ B < 90%) | A (90 ≦ A ≦ 100%) | B (80 ≦ B < 90%) | A (90 ≦ A ≦ 100%) | B (80 ≦ B < 90%)
CCCCCC[S+]([O-])c1nc2cc(-n3nc(C)n(C(F)F)c3=O)c(Cl)cc2s1 (stereo not drawn) [Compound 114] | A (90 ≦ A ≦ 100%) | B (80 ≦ B < 90%) | A (90 ≦ A ≦ 100%) | A (90 ≦ A ≦ 100%) | B (80 ≦ B < 90%) | A (90 ≦ A ≦ 100%)
CCOC(=O)C(C)[S+]([O-])c1nc2cc(-n3nc(C)n(C(F)F)c3=O)c(Br)cc2s1 (stereo not drawn) [Compound 116] | B (80 ≦ B < 90%) | D (50 ≦ D < 60%) | C (60 ≦ C < 80%) | B (80 ≦ B < 90%) | B (80 ≦ B < 90%) | A (90 ≦ A ≦ 100%)
Cc1nn(-c2cc3nc(S(=O)(=O)Cc4cccc([N+](=O)[O-])c4)sc3cc2F)c(=O)n1C(F)F [Compound 50] | D (50 ≦ D < 60%) | B (80 ≦ B < 90%) | A (90 ≦ A ≦ 100%) | B (80 ≦ B < 90%) | B (80 ≦ B < 90%) | C (60 ≦ C < 80%)
Cc1nn(-c2cc3nc(S(=O)(=O)Cc4ccccc4)sc3cc2F)c(=O)n1C(F)F [Compound 51] | B (80 ≦ B < 90%) | C (60 ≦ C < 80%) | A (90 ≦ A ≦ 100%) | A (90 ≦ A ≦ 100%) | A (90 ≦ A ≦ 100%) | B (80 ≦ B < 90%)
Cc1nn(-c2cc3nc(S(C)(=O)=O)sc3cc2F)c(=O)n1C [Compound 35] | C (60 ≦ C < 80%) | C (60 ≦ C < 80%) | A (90 ≦ A ≦ 100%) | B (80 ≦ B < 90%) | A (90 ≦ A ≦ 100%) | D (50 ≦ D < 60%)
Cc1ccc(CSc2nc3cc(-n4nc(C)n(C(F)F)c4=O)c(F)cc3s2)cc1 [Compound 15] | B (80 ≦ B < 90%) | B (80 ≦ B < 90%) | C (60 ≦ C < 80%) | A (90 ≦ A ≦ 100%) | B (80 ≦ B < 90%) | A (90 ≦ A ≦ 100%)
CCSc1nc2cc(-n3nc(C)n(C(F)F)c3=O)c(Cl)cc2s1 [Compound 86] | B (80 ≦ B < 90%) | A (90 ≦ A ≦ 100%) | A (90 ≦ A ≦ 100%) | A (90 ≦ A ≦ 100%) | A (90 ≦ A ≦ 100%) | A (90 ≦ A ≦ 100%)
C=CCSc1nc2cc(-n3nc(C(F)(F)F)n(C(F)F)c3=O)c(F)cc2s1 [Compound 123] | A (90 ≦ A ≦ 100%) | D (50 ≦ D < 60%) | B (80 ≦ B < 90%) | A (90 ≦ A ≦ 100%) | B (80 ≦ B < 90%) | D (50 ≦ D < 60%)
